{
  "source": "patent US20190330224A1",
  "about": "“ACC INHIBITORS AND USES THEREOF” (Gilead Apollo, LLC, priority 2015, published 2019)",
  "key": {"Human ACC2": {"molecular_target": "Human ACC2 (Homo sapiens, UniProt O00763)", "sequence (O00763 whole entry)": "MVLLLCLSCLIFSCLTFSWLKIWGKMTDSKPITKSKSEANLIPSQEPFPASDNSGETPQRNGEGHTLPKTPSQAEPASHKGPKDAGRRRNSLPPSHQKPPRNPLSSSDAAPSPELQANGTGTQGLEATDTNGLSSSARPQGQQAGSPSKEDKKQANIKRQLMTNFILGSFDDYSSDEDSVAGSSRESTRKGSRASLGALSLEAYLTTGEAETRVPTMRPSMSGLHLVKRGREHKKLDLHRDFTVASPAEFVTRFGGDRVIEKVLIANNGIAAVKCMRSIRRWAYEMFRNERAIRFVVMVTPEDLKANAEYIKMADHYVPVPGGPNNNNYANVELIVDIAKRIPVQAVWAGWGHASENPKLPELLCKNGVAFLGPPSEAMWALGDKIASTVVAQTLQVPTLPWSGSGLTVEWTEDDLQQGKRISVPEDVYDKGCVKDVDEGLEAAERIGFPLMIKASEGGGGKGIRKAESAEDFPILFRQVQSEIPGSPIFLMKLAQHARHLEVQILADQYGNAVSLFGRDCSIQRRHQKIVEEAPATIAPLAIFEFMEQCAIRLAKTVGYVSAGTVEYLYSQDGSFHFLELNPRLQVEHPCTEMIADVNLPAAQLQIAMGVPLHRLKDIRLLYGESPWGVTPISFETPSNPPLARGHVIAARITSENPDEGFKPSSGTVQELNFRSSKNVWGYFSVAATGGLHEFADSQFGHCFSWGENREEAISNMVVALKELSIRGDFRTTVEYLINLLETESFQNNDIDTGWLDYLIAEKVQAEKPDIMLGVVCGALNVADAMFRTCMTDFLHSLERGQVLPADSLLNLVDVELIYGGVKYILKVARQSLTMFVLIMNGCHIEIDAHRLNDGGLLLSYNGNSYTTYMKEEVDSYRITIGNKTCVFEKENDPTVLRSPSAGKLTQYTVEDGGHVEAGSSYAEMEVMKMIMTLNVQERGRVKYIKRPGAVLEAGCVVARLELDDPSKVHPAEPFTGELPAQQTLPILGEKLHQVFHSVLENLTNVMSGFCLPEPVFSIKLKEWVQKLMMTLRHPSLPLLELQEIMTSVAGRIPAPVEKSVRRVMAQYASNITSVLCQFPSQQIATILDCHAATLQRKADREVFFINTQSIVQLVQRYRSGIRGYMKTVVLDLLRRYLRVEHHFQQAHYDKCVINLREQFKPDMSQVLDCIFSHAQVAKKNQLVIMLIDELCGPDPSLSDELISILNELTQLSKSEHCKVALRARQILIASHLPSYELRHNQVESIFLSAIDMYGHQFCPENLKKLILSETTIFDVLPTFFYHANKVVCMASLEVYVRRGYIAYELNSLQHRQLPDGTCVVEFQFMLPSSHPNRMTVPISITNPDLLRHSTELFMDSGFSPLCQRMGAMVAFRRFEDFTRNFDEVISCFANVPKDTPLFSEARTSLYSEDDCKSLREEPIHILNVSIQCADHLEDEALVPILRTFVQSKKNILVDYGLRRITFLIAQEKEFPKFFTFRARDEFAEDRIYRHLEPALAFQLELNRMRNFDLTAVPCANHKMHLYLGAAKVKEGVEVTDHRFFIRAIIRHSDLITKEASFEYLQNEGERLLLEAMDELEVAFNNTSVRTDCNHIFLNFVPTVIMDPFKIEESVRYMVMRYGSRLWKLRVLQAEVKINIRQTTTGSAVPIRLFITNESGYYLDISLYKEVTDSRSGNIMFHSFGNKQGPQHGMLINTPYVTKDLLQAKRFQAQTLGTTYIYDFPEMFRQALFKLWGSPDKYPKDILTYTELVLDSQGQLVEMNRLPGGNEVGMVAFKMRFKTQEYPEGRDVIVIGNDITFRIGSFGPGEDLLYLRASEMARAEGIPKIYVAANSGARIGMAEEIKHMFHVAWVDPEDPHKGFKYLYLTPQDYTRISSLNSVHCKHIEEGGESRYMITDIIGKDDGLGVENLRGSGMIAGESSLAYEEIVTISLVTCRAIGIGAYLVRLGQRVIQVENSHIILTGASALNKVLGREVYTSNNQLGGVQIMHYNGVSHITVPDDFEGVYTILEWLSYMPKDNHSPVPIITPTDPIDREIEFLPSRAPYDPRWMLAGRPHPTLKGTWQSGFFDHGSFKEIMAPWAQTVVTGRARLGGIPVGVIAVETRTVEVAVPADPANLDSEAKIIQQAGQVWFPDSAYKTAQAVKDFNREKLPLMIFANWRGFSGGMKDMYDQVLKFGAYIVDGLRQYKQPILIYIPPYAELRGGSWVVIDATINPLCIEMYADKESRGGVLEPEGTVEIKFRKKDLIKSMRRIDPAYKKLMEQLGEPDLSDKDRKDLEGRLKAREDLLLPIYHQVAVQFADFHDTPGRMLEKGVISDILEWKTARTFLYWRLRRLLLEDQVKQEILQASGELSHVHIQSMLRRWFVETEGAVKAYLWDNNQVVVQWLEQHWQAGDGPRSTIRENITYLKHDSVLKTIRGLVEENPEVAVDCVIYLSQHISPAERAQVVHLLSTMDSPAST", "assay": "In vitro ACC2 inhibition assay (ADP-Glo), human ACC2", "type": "biochemical", "conditions": "5 nM ACC2, 20 μM ATP, 20 μM acetyl-CoA"}, "Aspergillus fumigatus": {"test_system": "Aspergillus fumigatus", "assay": "In vitro antifungal assay (broth microdilution, Micromyx), A. fumigatus", "type": "cell-based", "conditions": "48 hr", "method": "(§1) Compounds of the present invention were also assayed in an in vitro antifungal assay against Candida glabrata, Candida tropicalis, and Aspergillus fumigatus, performed by Micromyx, a representative procedure of which follows. The test organisms were reference strains acquired from the American Type Culture Collection (ATCC). Upon receipt, the isolates were streaked onto Sabouraud Dextrose Agar (SDA). Colonies were harvested from these plates and a cell suspension was prepared in Sabouraud Dextrose Broth (Becton Dickinson, Sparks, Md.) containing cryoprotectant. Aliquots were then frozen at −80° C. Prior to the assay, the frozen seeds of all yeast isolates to be tested in that session were thawed and streaked for isolation onto SDA and incubated overnight at 35° C. All fungal isolates were previously streaked on SDA and incubated at 35° C. until spore formation occurred, followed by harvesting of the spores in sterile 0.85% saline and enumeration. The spore preps were stored at 4° C. Yeast and fungal isolates were tested in RPMI medium (Catalog No. SH30011.04; Lot No. AYB60287A; HyClone Labs, Logan, Utah) buffered with 0.165 M MOPS (Catalog No. 475898; Lot No. D00165859; CalBiochem, La Jolla, Calif.). The pH of the medium was adjusted to 7.0 with 1 N NaOH, sterile filtered using a 0.2 μm PES filter, and stored at 4° C. until used. All of the above media was prepared and stored according to guidelines from the Clinical and Laboratory Standards Institute (CLSI; 2-4). The broth microdilution assay method essentially followed the procedure described by CLSI (2-4) and employed automated liquid handlers to conduct serial dilutions and liquid transfers. Automated liquid handlers included the Multidrop 384 (Labsystems, Helsinki, Finland) and Biomek 2000 (Beckman Coulter, Fullerton Calif. The wells in columns 2-12 in standard 96-well microdilution plates (Costar 3795) were filled with 150 μl of the correct diluent. These would become the ‘mother plates’ from which ‘daughter’ or test plates would be prepared. The drugs (300 μL at 40× the desired top concentration in the test plates) were dispensed into the appropriate well in Column 1 of the mother plates. The Biomek 2000 was used to make serial two-fold dilutions through Column 11 in the “mother plate”. The wells of Column 12 contained no drug and were the organism growth control wells. The daughter plates were loaded with 185 μL per well of the appropriate test media using the Multidrop 384. The daughter plates were prepared using the Biomek FX which transferred 5 μL of drug solution from each well of a mother plate to the corresponding well of the correct daughter plate in a single step. A standardized inoculum of each organism was prepared per CLSI methods (2-4). For yeast isolates, colonies were picked from the primary plate and a suspension was prepared to equal a 0.5 McFarland turbidity standard. Suspensions were then diluted 1:100 in RPMI 1640 medium, resulting in a final inoculum concentration of 0.5-2.5×10^3 CFU/mL per test well. […] Standardized inoculum suspensions were transferred to compartments of sterile reservoirs divided by length (Beckman Coulter), and the Biomek 2000 was used to inoculate all plates. Daughter plates were placed on the Biomek 2000 in reverse orientation so that plates were inoculated from low to high drug concentration. The Biomek 2000 delivered 10 μL of standardized inoculum into each well of the appropriate daughter plate for an additional 1:20 dilution. Thus, the wells of the daughter plates ultimately contained 185 μL of the appropriate media, 5 μL of drug solution, and 10 μL of inoculum. The final concentration of DMSO (if used as a solvent) in the test well was 2.5%. Plates were stacked 3 high, covered with a lid on the top plate, placed into plastic bags, and incubated at 35° C. for approximately 24-48 hr for all yeast isolates, and 48 hr for all fungal isolates. Plates were viewed from the bottom using a plate viewer. […]"}, "Candida glabrata": {"test_system": "Candida glabrata", "assay": "In vitro antifungal assay (broth microdilution, Micromyx), C. glabrata", "type": "cell-based", "conditions": "Nakaseomyces glabratus, ATCC90030, strain 0635 ATCC 90030, 35° C., approximately 24-48 hr", "method": "as §1"}, "Candida tropicalis": {"test_system": "Candida tropicalis", "assay": "In vitro antifungal assay (broth microdilution, Micromyx), C. tropicalis", "type": "cell-based", "conditions": "ATCC90874, strain 0636 ATCC 90874, 35° C., approximately 24-48 hr", "method": "as §1"}, "C. krusei ATCC 6258": {"test_system": "C. krusei ATCC 6258", "assay": "Anti-Fungal Activity Assay (broth microtiter MIC), C. krusei", "type": "cell-based, Candida krusei", "conditions": "Pichia kudriavzevii, ATCC6258, 48 h, 3 replicates; MIC recorded at 48 h; read-out: MIC C. krusei ATCC 6258", "method_in_brief": "(§2)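 MIC taken as visual growth inhibition versus the growth control, mostly at 48 h (soraphen also at 24 h). Following CLSI M27-A3, colonies grown overnight at 35° C on Sabouraud dextrose agar were suspended in RPMI 1640+MOPS; test agents came from 1 mg/mL DMSO stocks.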"}, "C. albicans ATCC 90028": {"test_system": "C. albicans ATCC 90028", "assay": "Anti-Fungal Activity Assay (broth microtiter MIC), C. albicans", "type": "cell-based, Candida albicans", "conditions": "Candida albicans, ATCC90028, 48 h, 3 replicates; MIC recorded at 48 h; read-out: MIC C. albicans ATCC 90028", "method_in_brief": "as §2"}, "[1]": {"test_system": "C. parapsilosis ATCC 22019", "assay": "Anti-Fungal Activity Assay (broth microtiter MIC), C. parapsilosis", "type": "cell-based, Candida parapsilosis", "conditions": "Lodderomyces parapsilosis, ATCC22019, 48 h, 3 replicates; MIC recorded at 48 h; read-out: MIC C. parapsilosis ATCC 22019", "method_in_brief": "as §2"}, "[2]": {"test_system": "Collectotrichum graminicola (Cg)", "assay": "Growth inhibition assay of fungal pathogens, Cg", "type": "cell-based", "conditions": "48 hours; read-out: Concentration at 90% Inhibition, Cg", "method_in_brief": "(§3)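 Spores in 17% V8 liquid medium were exposed to compound at final 50, 10 and 2 ppm or 2, 0.4 and 0.08 ppm with 2% DMSO. After 48 h, OD600 (blank-subtracted) and visual ratings were compared with the 2% DMSO control to give percent growth inhibition.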"}, "Septoria tritici (St)": {"test_system": "Septoria tritici (St)", "assay": "Growth inhibition assay of fungal pathogens, St", "type": "cell-based", "conditions": "Zymoseptoria tritici; 48 hours; read-out: Concentration at 90% Inhibition, St", "method_in_brief": "as §3"}, "[3]": {"test_system": "Fusarium moniliforme (Fm)", "assay": "Growth inhibition assay of fungal pathogens, Fm", "type": "cell-based", "conditions": "Fusarium verticillioides; 48 hours; read-out: Concentration at 90% Inhibition, Fm", "method_in_brief": "as §3"}, "Rhizoctonia solani (Rs)": {"test_system": "Rhizoctonia solani (Rs)", "assay": "Growth inhibition assay of fungal pathogens, Rs", "type": "cell-based", "conditions": "48 hours, read-out: Concentration at 90% Inhibition, Rs"}, "[4]": {"conditions": "compound concentration 10 ppm, foliar spray, evaluated 7 days after inoculation"}, "Botrtyis cinerea (Bc)": {"test_system": "Botrtyis cinerea (Bc)", "assay": "Growth inhibition assay of fungal pathogens, Bc", "type": "cell-based", "conditions": "48 hours; read-out: Concentration at 90% Inhibition, Bc", "method_in_brief": "as §3"}, "[5]": {"test_system": "Phytophthora capsici (Pc)", "assay": "Growth inhibition assay of fungal pathogens, Pc", "type": "cell-based", "conditions": "48 hours, read-out: Concentration at 90% Inhibition, Pc", "method_in_brief": "as §3"}, "[6]": {"test_system": "Fusarium virguliforme (Fv)", "assay": "Growth inhibition assay of fungal pathogens, Fv", "type": "cell-based", "conditions": "48 hours, read-out: Concentration at 90% Inhibition, Fv", "method_in_brief": "as §3"}, "[7]": {"test_system": "Blumeria graminis f sp. hordei", "assay": "Foliar protection test, barley powdery mildew control", "type": "in vivo, Blumeria graminis f sp. hordei on Hordeum vulgare cv. Perry", "conditions": "168 h, compound concentration 50 ppm, foliar spray, evaluated 7 days after inoculation, read-out: Barley Powdery Mildew Control at 50 ppm", "method_in_brief": "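Barley cv. Perry at first true leaf (6 days) sprayed to wetness on both leaf sides with compound in 5% acetone/0.005% Tween 80, typically at 200, 100, 50, 10 or 2 ppm. Inoculated 24 h later by shaking spores from colonized plants; kept at 20-22 °C, 70% RH. Mildew colonization scored 7 days later as percent control.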"}, "Diplodia maydis (Dm)": {"test_system": "Diplodia maydis (Dm)", "assay": "Growth inhibition assay of fungal pathogens, Dm", "type": "cell-based", "conditions": "Stenocarpella maydis; 48 hours; read-out: Concentration at 90% Inhibition, Dm", "method_in_brief": "as §3"}, "Fungal ACC2": {"molecular_target": "Fungal ACC2 (UniProt Q00955)", "sequence (Q00955 whole entry)": "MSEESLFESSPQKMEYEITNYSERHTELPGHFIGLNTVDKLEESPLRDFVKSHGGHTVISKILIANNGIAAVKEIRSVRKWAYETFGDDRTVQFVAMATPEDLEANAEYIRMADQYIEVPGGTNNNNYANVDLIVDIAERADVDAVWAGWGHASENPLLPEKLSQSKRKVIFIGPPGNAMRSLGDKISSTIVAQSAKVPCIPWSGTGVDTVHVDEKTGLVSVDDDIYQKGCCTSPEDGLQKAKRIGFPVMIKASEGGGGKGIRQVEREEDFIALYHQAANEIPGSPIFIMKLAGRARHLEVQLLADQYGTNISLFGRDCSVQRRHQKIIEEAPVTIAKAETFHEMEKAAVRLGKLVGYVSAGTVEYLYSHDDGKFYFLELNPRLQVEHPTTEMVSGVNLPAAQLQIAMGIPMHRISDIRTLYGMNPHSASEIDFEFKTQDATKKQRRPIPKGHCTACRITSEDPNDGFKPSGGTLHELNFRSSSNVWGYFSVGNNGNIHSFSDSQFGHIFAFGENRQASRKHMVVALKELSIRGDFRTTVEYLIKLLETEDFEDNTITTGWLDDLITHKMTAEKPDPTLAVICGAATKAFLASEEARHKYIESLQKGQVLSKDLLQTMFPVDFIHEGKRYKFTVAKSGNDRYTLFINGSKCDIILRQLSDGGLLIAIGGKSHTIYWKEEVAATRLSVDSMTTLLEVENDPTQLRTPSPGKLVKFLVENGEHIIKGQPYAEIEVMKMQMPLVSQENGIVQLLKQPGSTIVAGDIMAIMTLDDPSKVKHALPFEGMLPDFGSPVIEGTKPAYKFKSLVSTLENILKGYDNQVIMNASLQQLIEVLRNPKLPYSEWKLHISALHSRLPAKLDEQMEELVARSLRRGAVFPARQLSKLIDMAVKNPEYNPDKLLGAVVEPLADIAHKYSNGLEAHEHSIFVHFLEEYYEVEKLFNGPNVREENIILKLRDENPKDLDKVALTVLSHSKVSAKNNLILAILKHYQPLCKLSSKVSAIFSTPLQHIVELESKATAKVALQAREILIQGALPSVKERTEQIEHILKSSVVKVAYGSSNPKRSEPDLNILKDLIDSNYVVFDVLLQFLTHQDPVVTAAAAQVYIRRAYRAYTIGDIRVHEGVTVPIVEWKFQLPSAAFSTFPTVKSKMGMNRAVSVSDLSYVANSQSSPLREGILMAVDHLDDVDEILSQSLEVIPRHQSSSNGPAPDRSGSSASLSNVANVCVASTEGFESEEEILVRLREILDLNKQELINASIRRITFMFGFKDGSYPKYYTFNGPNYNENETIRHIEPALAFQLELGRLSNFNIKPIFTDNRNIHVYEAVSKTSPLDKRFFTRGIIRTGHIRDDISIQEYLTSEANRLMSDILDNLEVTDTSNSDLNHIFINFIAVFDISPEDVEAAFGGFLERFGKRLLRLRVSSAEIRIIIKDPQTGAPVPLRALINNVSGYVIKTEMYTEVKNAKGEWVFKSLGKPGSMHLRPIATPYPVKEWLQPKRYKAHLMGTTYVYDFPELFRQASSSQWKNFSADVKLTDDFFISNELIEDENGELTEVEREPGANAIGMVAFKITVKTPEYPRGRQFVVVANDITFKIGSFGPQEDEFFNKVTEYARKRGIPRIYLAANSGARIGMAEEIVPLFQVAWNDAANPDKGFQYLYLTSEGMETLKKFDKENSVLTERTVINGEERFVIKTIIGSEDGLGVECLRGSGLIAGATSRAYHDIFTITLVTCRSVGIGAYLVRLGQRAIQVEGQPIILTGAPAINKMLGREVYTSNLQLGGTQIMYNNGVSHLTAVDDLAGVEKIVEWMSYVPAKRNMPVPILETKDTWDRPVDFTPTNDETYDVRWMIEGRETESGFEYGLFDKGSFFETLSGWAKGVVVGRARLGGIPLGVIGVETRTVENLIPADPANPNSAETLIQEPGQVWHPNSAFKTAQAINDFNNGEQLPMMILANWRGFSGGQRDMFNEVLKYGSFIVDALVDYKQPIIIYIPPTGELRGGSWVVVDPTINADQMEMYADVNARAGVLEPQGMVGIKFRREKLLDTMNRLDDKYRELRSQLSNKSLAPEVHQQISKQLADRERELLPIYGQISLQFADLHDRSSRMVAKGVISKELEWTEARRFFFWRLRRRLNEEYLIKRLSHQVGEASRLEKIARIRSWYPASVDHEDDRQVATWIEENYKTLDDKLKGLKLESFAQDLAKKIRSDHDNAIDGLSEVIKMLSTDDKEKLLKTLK", "conditions": "read-out: Fungal ACC2 (IC50, in vitro ACC2 inhibition)"}, "[8]": {"conditions": "strain 5280 ATCC MYA-3626, 35° C., read-out: MIC, A. fumigatus 5280 ATCC MYA-3626"}, "[9]": {"conditions": "strain 6781 ATCC MYA-4609, 35° C., read-out: MIC, A. fumigatus 6781 ATCC MYA-4609"}},
  "note": "Where two headings read alike, the source gives them in different places.",
  "data": [
    {"smiles": "CCN1CCC(n2c(=O)c3c(C)c(-n4nccn4)sc3n(C[C@H](OC3CCOCC3)c3cc(F)ccc3OC)c2=O)C1=O", "note": "(stereo partly drawn) [Compound I-11, 3-(1-ethyl-2-oxopyrrolidin-3-yl)-1-((R)-2-(5-fluoro-2-methoxyphenyl)-2-((tetrahydro-2H-pyran-4-yl)oxy)ethyl)-5-methyl-6-(2H-1,2,3-triazol-2-yl)thieno[2,3-d]pyrimidine-2,4(1H,3H)-dione]", "values": [
      {"measurement": "IC50", "setting": "Human ACC2", "value": "2 to 10", "unit": "nM"},
      {"measurement": "MIC", "setting": "Aspergillus fumigatus; [8]", "value": "0.25 to 1", "unit": "µg/mL"},
      {"measurement": "MIC", "setting": "Aspergillus fumigatus; [9]", "value": "0.25 to 1", "unit": "µg/mL"},
      {"measurement": "MIC", "setting": "Candida glabrata", "value": "> 4.1", "unit": "µg/mL"},
      {"measurement": "MIC", "setting": "Candida tropicalis", "value": "0.25 to 1", "unit": "µg/mL"}
    ]},
    {"smiles": "COc1ccc(F)cc1[C@H](Cn1c(=O)n(C2CCN(C(C)C)C2=O)c(=O)c2c(C)c(-n3nccn3)sc21)OC1CCOCC1", "note": "(stereo partly drawn) [Compound I-12, 1-((R)-2-(5-fluoro-2-methoxyphenyl)-2-((tetrahydro-2H-pyran-4-yl)oxy)ethyl)-3-(1-isopropyl-2-oxopyrrolidin-3-yl)-5-methyl-6-(2H-1,2,3-triazol-2-yl)thieno[2,3-d]pyrimidine-2,4(1H,3H)-dione]", "values": [
      {"measurement": "MIC", "setting": "C. krusei ATCC 6258", "value": "0.25 to 1", "unit": "µg/mL"},
      {"measurement": "IC50", "setting": "Human ACC2", "value": "2 to 10", "unit": "nM"},
      {"measurement": "MIC", "setting": "C. albicans ATCC 90028", "value": "0.25 to 1", "unit": "µg/mL"},
      {"measurement": "MIC", "setting": "Aspergillus fumigatus; [8]", "value": "0.25 to 1", "unit": "µg/mL"},
      {"measurement": "MIC", "setting": "Aspergillus fumigatus; [9]", "value": "0.25 to 1", "unit": "µg/mL"},
      {"measurement": "MIC", "setting": "[1]", "value": "0.25 to 1", "unit": "µg/mL"},
      {"measurement": "MIC", "setting": "Candida glabrata", "value": "> 4.1", "unit": "µg/mL"},
      {"measurement": "MIC", "setting": "Candida tropicalis", "value": "0.25 to 1", "unit": "µg/mL"}
    ]},
    {"smiles": "COc1ccc(F)cc1[C@H](Cn1c(=O)n([C@@H]2CCN(C)C2=O)c(=O)c2c(C)c(-n3nccn3)sc21)OCCO", "note": "[Compound I-83, 1-((R)-2-(5-fluoro-2-methoxyphenyl)-2-(2-hydroxy-ethoxy)ethyl)-5-methyl-3-((R)-1-methyl-2-oxopyrrolidin-3-yl)-6-(2H-1,2,3-triazol-2-yl)thieno[2,3-d]pyrimidine-2,4(1H,3H)-dione]", "values": [
      {"measurement": "MIC", "setting": "C. krusei ATCC 6258", "value": "2.1 to 4", "unit": "µg/mL"},
      {"measurement": "IC90", "setting": "[2]", "value": 2, "unit": "µg/mL"},
      {"measurement": "IC90", "setting": "Septoria tritici (St)", "value": "> 50", "unit": "µg/mL"},
      {"measurement": "IC50", "setting": "Human ACC2", "value": "2 to 10", "unit": "nM"},
      {"measurement": "IC90", "setting": "[3]", "value": 2, "unit": "µg/mL"},
      {"measurement": "MIC", "setting": "C. albicans ATCC 90028", "value": "2.1 to 4", "unit": "µg/mL"},
      {"measurement": "IC90", "setting": "Rhizoctonia solani (Rs)", "value": 2, "unit": "µg/mL"},
      {"measurement": "Barley Powdery Mildew Control at 10 ppm", "setting": "[4]", "value": "D (provided a compound having <25% control of barley powdery mildew)"},
      {"measurement": "MIC", "setting": "[1]", "value": "2.1 to 4", "unit": "µg/mL"},
      {"measurement": "IC90", "setting": "Botrtyis cinerea (Bc)", "value": 2, "unit": "µg/mL"},
      {"measurement": "IC90", "setting": "[5]", "value": "> 50", "unit": "µg/mL"},
      {"measurement": "IC90", "setting": "[6]", "value": 10, "unit": "µg/mL"},
      {"measurement": "pest or weed control at 50 ppm", "setting": "[7]", "value": "70 to 84", "unit": "%"},
      {"measurement": "IC90", "setting": "Diplodia maydis (Dm)", "value": 10, "unit": "µg/mL"},
      {"measurement": "IC50", "setting": "Fungal ACC2", "value": "0.7 to 2", "unit": "nM"}
    ]}
  ]
}
